Laboratory results as given in patent US20240018153A1, “BENZENESULFONAMIDE DERIVATIVES AND USES THEREOF” (2692372 ONTARIO, INC., priority 2020, published 2024).

What was measured:
FGFR4 = FGFR4 (Homo sapiens (Human), UniProt P22455); assay: HTRF KinEASE-TK kinase assay, FGFR4; type: biochemical; conditions: for remaining activity at 1 µM: read-out: % FGFR4 Remaining activity vs DMSO (1 μM, 3 h); for remaining activity at 10 µM: read-out: % FGFR4 Remaining activity vs DMSO (10 μM, 3 h)
How it was run: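 HTRF ratio (Em 665/620 nm) measured 60 min after EDTA stop with SA-XL665 (31.25 nM) and europium antibody reflects phosphorylated biotinylated substrate. Before substrate/ATP addition, 5.12 nM (0.333 ng/ul) FGFR4 sat with compound 3 h at room temperature.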

EGFR [1] = molecular target: T1, EGFR (Homo sapiens (Human), UniProt P00533); assay: A549 cell lysis and immunoassay, total EGFR degradation; type: cell-based; set-up: key: Y: EGFR bound in cells and EGFR degradation occurred; conditions: A549 cells; for EGFR degradation (A549, compound concentration, 24 h): compound concentration 10, 24 h
Method: A549 cells (ATCC) were cultured in Dulbecco's Modified Eagle's Medium (DMEM) (Wisent) supplemented with 10% FBS and 1% penicillin/streptomycin. Cells were seeded in 6-well plates at 530,000 cells/well and incubated at 37° C., 5% CO2 for 16 hours. Cells were starved in DMEM containing 1% FBS for 4 hours before they were treated with the indicated concentrations of compound or DMSO alone and incubated at 37° C., 5% CO2 for 24 hours. Prior to cell harvest and lysis, 50 ng/ml human epidermal growth factor (hEGF) (Sigma) was added to the cells and incubated at 37° C., 5% CO2 for 10 minutes. Conditioned media was discarded, and adherent cells were washed with PBS before they were scraped on ice. Cell suspensions were centrifugated at 2,000 RPM for 5 minutes at 4° C. and supernatants were discarded. Cell pellets were resuspended with 1× RIPA buffer (Millipore) and incubated on ice for 15 minutes. Protein lysates were extracted by centrifugating at 20,000 RPM for 20 minutes at 4° C. Proteins were separated and total EGFR protein levels were quantified by Simple Western Immunoassay (ProteinSimple) using the Protein Normalization Assay Module for Jess according to the manufacturer's protocol, using a protein concentration of 0.125 μg/μl and an antibody targeting EGFR (clone #EP38Y, Abcam) diluted to 1:400. Phosphorylated EGFR protein levels were quantified with the same assay using a protein concentration of 1 μg/μl and an antibody targeting pEGFR (Y1068) (Cell Signalling) diluted to 1:25. EGFR and phosphorylated EGFR levels were normalized to the Jess Protein Normalization Reagent loading control and subsequently to the DMSO control.

BTK = BTK (Homo sapiens (Human), UniProt Q06187); assay: HTRF KinEASE-TK kinase assay, BTK; type: biochemical; conditions: 3 h preincubation; for remaining activity at 1 µM: 1 μM compound, read-out: % BTK Remaining activity vs DMSO (1 μM, 3 h); for remaining activity at 10 µM: 10 μM compound, read-out: % BTK Remaining activity vs DMSO (10 μM, 3 h)
How it was run: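 Read-out was the 665 nm to 620 nm ratio, taken 60 min after detection, reflecting phosphorylated biotinylated substrate. Before this, BTK reacted 45 min with substrate and ATP in kinase buffer supplemented with MnCl2 (10 mM), MgCl2 (5 mM), ATPγS (1 uM) and TCEP (1 mM).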

EGFR [2] = molecular target: T1, EGFR; assay: HTRF KinEASE-TK kinase assay, EGFR; type: biochemical; conditions: 3 h preincubation; for remaining activity at 1 µM: 1 μM compound, read-out: % EGFR Remaining activity vs DMSO (1 μM, 3 h); for remaining activity at 10 µM: 10 μM compound, read-out: % EGFR Remaining activity vs DMSO (10 μM, 3 h); for IC50: dose response, read-out: EGFR Inhibition IC50
How it was run: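 Buffer contained 5 mM MgCl2, 2 mM MnCl2 and 1 mM TCEP; compounds at two final concentrations, 1 and 10 uM, with 0.5% DMSO, pre-incubated with the enzyme.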

JAK3 = JAK3 (Homo sapiens (Human), UniProt P52333); assay: HTRF KinEASE-TK kinase assay, JAK3; type: biochemical; conditions: for remaining activity at 1 µM: read-out: % JAK3 Remaining activity vs DMSO (1 μM, 3 h); for remaining activity at 10 µM: read-out: % JAK3 Remaining activity vs DMSO (10 μM, 3 h)
How it was run: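 HTRF read-out: the Em665/Em620 ratio, measured 60 min after stopping with EDTA, 31.25 nM SA-XL665 and 100-fold diluted Eu-antibody, was taken as phosphorylated substrate. Beforehand, 0.21 nM JAK3 (0.0133 ng/µl) sat with compound for 3 h at room temperature, then biotinylated substrate plus ATP started the reaction.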

BMX = BMX (Homo sapiens (Human), UniProt P51813); assay: HTRF KinEASE-TK kinase assay, BMX; type: biochemical; conditions: for remaining activity at 1 µM: 1 uM compound; for remaining activity at 1 µM / remaining activity at 10 µM: 3 h preincubation; for remaining activity at 10 µM: 10 uM compound
How it was run: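 Phosphorylation was quantified by HTRF KinEASE-TK as the 665/620 nm ratio, read 60 min after EDTA stop with SA-XL665 (31.25 nM) and europium antibody. Before the reaction, 3.03 nM BMX was preincubated with compound for 3 hours at room temperature, and the reaction was started with biotinylated substrate plus ATP.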

BMX, sequence (P51813 whole entry): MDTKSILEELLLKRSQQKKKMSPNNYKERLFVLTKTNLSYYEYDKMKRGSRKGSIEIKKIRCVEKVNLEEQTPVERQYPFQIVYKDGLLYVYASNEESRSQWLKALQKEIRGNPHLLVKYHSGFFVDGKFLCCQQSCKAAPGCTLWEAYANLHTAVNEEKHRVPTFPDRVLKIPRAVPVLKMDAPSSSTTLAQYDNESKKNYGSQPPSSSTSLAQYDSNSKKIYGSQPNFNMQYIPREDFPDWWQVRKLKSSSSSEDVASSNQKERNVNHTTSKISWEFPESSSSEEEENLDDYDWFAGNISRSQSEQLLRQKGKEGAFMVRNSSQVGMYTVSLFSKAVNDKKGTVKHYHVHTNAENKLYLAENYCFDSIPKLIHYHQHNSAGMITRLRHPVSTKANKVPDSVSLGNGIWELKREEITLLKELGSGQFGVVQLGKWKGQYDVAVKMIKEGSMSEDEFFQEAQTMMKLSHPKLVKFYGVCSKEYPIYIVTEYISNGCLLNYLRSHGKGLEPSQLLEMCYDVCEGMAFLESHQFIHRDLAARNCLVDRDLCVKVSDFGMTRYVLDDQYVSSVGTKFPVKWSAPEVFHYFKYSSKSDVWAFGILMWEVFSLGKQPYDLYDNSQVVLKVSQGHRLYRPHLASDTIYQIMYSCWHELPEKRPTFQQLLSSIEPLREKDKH
FGFR4, sequence (P22455 22-802): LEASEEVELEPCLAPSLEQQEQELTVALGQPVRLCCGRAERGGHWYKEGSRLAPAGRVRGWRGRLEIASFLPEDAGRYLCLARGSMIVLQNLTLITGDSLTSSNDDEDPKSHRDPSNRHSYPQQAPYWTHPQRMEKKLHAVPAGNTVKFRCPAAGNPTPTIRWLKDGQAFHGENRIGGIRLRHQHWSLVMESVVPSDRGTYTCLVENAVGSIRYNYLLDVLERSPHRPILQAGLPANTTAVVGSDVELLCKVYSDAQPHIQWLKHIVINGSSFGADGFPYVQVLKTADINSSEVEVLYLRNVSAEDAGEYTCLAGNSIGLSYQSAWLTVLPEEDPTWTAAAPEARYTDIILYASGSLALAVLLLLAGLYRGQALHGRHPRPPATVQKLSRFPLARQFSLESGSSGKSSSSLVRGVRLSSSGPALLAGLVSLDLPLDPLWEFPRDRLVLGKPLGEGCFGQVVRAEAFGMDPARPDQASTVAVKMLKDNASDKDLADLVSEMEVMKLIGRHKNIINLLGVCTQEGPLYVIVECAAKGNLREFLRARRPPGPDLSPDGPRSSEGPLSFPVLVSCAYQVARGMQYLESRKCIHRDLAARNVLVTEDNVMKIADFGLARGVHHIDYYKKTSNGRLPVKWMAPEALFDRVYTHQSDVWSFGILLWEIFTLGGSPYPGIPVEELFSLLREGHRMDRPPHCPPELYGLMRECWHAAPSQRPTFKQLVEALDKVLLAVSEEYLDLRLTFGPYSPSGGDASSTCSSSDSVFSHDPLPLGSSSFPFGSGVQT
BTK, sequence (Q06187 whole entry): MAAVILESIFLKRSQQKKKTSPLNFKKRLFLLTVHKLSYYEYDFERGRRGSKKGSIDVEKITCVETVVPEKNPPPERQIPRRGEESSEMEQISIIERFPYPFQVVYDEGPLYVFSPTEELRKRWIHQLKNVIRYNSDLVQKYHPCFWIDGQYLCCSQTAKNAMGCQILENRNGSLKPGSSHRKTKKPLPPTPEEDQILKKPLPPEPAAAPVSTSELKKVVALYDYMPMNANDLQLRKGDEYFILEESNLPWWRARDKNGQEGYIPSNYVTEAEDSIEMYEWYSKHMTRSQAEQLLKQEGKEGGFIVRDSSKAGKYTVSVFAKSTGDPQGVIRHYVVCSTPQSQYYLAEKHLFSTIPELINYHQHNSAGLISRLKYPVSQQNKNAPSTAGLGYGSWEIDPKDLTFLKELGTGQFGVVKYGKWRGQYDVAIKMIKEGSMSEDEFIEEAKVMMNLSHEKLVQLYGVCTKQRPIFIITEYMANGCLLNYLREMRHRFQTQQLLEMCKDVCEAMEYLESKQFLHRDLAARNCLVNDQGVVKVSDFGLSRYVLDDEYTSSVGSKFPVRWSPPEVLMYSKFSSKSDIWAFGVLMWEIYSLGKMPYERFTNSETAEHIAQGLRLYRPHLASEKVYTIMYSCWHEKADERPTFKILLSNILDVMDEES
T1 sequence (P00533 25-1210): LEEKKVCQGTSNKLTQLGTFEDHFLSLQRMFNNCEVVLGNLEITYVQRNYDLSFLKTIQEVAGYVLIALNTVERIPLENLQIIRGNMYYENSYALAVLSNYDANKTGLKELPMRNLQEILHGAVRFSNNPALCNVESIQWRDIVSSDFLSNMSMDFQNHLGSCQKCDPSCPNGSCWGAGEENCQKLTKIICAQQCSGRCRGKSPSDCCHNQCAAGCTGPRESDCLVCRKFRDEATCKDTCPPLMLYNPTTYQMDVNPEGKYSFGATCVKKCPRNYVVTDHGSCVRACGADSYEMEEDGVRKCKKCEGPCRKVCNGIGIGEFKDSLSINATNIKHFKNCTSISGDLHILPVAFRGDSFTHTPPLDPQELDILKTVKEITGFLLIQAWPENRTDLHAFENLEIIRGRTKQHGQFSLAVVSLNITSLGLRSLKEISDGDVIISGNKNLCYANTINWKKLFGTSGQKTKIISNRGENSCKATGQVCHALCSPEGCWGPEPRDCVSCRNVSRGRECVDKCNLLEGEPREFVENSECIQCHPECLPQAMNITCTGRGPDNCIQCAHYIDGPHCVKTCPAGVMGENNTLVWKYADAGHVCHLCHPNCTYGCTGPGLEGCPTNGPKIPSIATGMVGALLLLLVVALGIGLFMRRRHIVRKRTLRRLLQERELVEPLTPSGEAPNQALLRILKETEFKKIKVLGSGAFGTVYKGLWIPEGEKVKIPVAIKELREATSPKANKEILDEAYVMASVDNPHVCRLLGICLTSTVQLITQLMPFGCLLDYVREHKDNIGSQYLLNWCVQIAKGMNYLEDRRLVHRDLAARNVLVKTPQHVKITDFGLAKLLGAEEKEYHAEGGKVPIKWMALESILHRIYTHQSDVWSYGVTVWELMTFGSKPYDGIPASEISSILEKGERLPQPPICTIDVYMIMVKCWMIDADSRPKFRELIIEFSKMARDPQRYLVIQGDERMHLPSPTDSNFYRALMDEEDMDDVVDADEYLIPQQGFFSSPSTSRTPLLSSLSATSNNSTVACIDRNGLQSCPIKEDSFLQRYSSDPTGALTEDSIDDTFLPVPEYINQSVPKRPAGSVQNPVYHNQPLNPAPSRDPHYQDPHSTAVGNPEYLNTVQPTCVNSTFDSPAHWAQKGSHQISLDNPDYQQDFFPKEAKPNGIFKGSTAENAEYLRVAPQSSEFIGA
JAK3, sequence (P52333 781-1124): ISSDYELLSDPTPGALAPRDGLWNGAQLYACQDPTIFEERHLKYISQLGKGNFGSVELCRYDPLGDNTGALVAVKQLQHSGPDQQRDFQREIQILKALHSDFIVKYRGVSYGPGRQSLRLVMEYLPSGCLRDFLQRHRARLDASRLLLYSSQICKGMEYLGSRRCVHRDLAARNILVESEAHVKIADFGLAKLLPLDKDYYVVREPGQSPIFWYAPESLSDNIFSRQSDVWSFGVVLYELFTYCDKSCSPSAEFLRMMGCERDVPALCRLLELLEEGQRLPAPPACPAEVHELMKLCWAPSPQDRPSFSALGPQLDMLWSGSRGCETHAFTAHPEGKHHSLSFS

| remaining activity at 1 µM (FGFR4) [%] | remaining activity at 10 µM (FGFR4) [%] | EGFR degradation (A549, 1 μM, 24 h) (EGFR [1]) | EGFR degradation (A549, compound concentration, 24 h) (EGFR [1]) | remaining activity at 1 µM (BTK) [%] | remaining activity at 10 µM (BTK) [%] | remaining activity at 1 µM (EGFR [2]) [%] | remaining activity at 10 µM (EGFR [2]) [%] | IC50 (EGFR [2]) [nM] | remaining activity at 1 µM (JAK3) [%] | remaining activity at 10 µM (JAK3) [%] | remaining activity at 1 µM (BMX) [%] | remaining activity at 10 µM (BMX) [%] | IC50 (FGFR4; dose response) [nM] | IC50 (BTK; dose response, read-out: BTK Inhibition IC50) [nM] | IC50 (JAK3; dose response) [nM] | IC50 (BMX; dose response) [nM] | Structure (SMILES) |
| --- | --- | --- | --- | --- | --- | --- | --- | --- | --- | --- | --- | --- | --- | --- | --- | --- | --- |
| > 90 | > 90 | Y | Y | < 50 | < 50 | < 50 | < 50 | < 1000 | 50 to 90 | < 50 | 50 to 90 | < 50 | – | – | – | – | CS(=O)(=O)c1c(F)c(F)c(F)c(F)c1C(=O)Nc1cc2c(Nc3ccc(F)c(Cl)c3)ncnc2cc1O[C@H]1CCOC1 [Compound I-5, (S)—N-(4-((3-chloro-4-fluorophenyl)amino)-7-((tetrahydrofuran-3-yl)oxy)quinazolin-6-yl)-2,3,4,5-tetrafluoro-6-(methylsulfonyl)benzamide] |
| > 90 | > 90 | Y | Y | < 50 | 50 to 90 | > 90 | > 90 | – | > 90 | 50 to 90 | < 50 | < 50 | – | – | – | – | COCCOc1ccc(Nc2ncc(F)c(Nc3cccc(Nc4c(F)c(F)c(F)c(F)c4[S@+](C)[O-])c3)n2)cc1 (stereo in doubt) [Compound I-63, 5-fluoro-N^2-(4-(2-methoxyethoxy)phenyl)-N^4-(3-((2,3,4,5-tetrafluoro-6-(methylsulfinyl)phenyl)amino)phenyl)pyrimidine-2,4-diamine] |
| < 50 | < 50 | – | – | < 50 | < 50 | > 90 | > 90 | – | > 90 | 50 to 90 | < 50 | < 50 | > 1000 | – | – | – | Nc1ncnc2c1c(-c1ccc(Oc3ccccc3)cc1)nn2[C@@H]1CCN(S(=O)(=O)c2c(F)c(F)c(F)c(F)c2OCF)C1 [Compound I-24, (R)-3-(4-phenoxyphenyl)-1-(1-((2,3,4,5-tetrafluoro-6-(fluoromethoxy)phenyl)sulfonyl)pyrrolidin-3-yl)-1H-pyrazolo[3,4-d]pyrimidin-4-amine] |
| > 90 | 50 to 90 | Y | – | < 50 | < 50 | > 90 | 50 to 90 | – | < 50 | < 50 | < 50 | < 50 | – | < 1000 | > 1000 | < 1000 | CS(=O)(=O)c1c(F)c(F)c(F)c(F)c1CNCCNc1ncnc2[nH]ccc12 [Compound I-50, N^1-(7H-pyrrolo[2,3-d]pyrimidin-4-yl)-N2-(2,3,4,5-tetrafluoro-6-(methylsulfonyl)benzyl) ethane-1,2-diamine] |
| > 90 | 50 to 90 | Y | Y | > 90 | 50 to 90 | < 50 | < 50 | < 1000 | 50 to 90 | < 50 | 50 to 90 | > 90 | – | – | – | – | CS(=O)(=O)c1c(F)c(F)c(F)c(F)c1Nc1cc2c(Nc3ccc(F)c(Cl)c3)ncnc2cc1O[C@H]1CCOC1 [Compound I-2, (S)—N^4-(3-chloro-4-fluorophenyl)-N^6-(2,3,4,5-tetrafluoro-6-(methylsulfonyl)phenyl)-7-((tetrahydrofuran-3-yl)oxy)quinazoline-4,6-diamine] |
